Key:
ASIC1a [1] = biological target: T1, ASIC1a (Homo sapiens, UniProt P78348); assay: Calcium imaging of MES-induced calcium response (FLIPR); format: cell-based; set-up: host or cells: HEK293; settings: ASIC1a expressing HEK293 cells, MES-induced calcium response; read-out: IC50 (FLIPR)
T1 sequence (P78348 1-528): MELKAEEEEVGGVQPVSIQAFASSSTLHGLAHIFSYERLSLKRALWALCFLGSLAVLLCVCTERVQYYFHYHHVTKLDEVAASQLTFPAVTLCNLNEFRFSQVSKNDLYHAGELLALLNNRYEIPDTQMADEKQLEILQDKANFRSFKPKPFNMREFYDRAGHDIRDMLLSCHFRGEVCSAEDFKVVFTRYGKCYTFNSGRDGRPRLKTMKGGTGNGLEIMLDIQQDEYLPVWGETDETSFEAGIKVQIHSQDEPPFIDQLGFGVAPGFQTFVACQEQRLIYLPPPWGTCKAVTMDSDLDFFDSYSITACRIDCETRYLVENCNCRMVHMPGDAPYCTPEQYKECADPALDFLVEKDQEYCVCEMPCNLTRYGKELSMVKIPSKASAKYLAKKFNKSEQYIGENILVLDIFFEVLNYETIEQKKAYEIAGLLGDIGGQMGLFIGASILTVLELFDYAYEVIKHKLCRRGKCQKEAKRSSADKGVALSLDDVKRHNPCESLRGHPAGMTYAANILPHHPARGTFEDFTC

ASIC1a [2] = biological target: T1, ASIC1a; assay: Two-electrode voltage clamp in Xenopus laevis oocytes (Xo), acid-induced currents; format: cell-based; set-up: expressed in transfected cells; host or cells: Xenopus laevis oocytes (nuclear microinjection of expression vector such as pcDNA3); settings: Xenopus oocytes; for inhibition at 50 µM: read-out: % inh. at 50 μM (Xo)
Experimental: Two-electrode voltage clamp electrophysiological assays in Xenopus laevis oocytes expressing gated ion channels are performed as follows:
Oocytes are surgically removed from adult Xenopus laevis and treated for 2 h at room temperature with 1 mg/ml type I collagenase (Sigma) in Barth's solution under mild agitation. Selected oocytes at stage IV-V are defolliculated manually before nuclear microinjection of 2.5-5 ng of a suitable expression vector, such as pcDNA3, comprising the nucleotide sequence encoding a gated ion channel subunit protein. In such an experiment, the oocytes express homomultimeric proton-gated ion channels on their surface. In an alternate experiment, one, two, three or more vectors comprising the coding sequences for distinct gated ion channel subunits are co-injected in the oocyte nuclei. In the latter case, oocytes express heteromultimeric proton-gated ion channels. For example, ASIC2a and/or ASIC3 subunits in pcDNA3 vector are co-injected at a 1:1 cDNA ratio. After 2-4 days of expression at 19° C. in Barth's solution containing […] gentamicin and 1.8 mM CaCl2, gated ion channels are activated by applying an acidic solution (pH<7) and currents are recorded in a two electrode voltage-clamp configuration, using an OC-725B amplifier (Warner Instruments). Currents are acquired and digitized at 500 Hz on an Apple Imac G3 computer with an A/D NB-MIO-16XL interface (National Instruments) and recorded traces are post-filtered at 100 Hz in Axograph (Axon Instruments) (Neher, E. and Sakmann, B. (1976) Nature 260:799-802). Once impaled with the microelectrodes, oocytes are continuously superfused at 10-12 ml/min with a modified Ringer's solution containing 97 mM NaCl, 2 mM KCl, 1.8 mM CaCl2, and 10 mM HEPES brought to pH 7.4 with NaOH (Control Ringer). Test Ringer solution is prepared by replacing HEPES with MES and adjusting the pH to the desired acidic value. Compounds of the present invention are prepared in both the Control and Test Ringer solutions and applied to oocytes at room temperature through a computer-controlled switching valve system. Osmolarity of all solutions is adjusted to 235 mOsm with choline chloride. Similarly, recordings can also be acquired in an automated multichannel oocytes system as the OpusExpress™ (Molecular Devices, Sunnyvale, USA).
FIGS. 1A and 2A illustrate the inhibitory effects of Compounds 203 and 206 on acid-induced activation of recombinant homomeric hASIC1a channels.

Row | IC50 (ASIC1a [1]) | inhibition at 50 µM (ASIC1a [2]) | inhibition at 100 µM (ASIC1a [2]; 100 μM, read-out: % inh. at 100 μM (Xo)) | SMILES
1 | > 70 µM | < 25% | – | CCOC(=O)N1CCc2c(Br)ccc(NCC(=O)OC)c2C1 [Compound 158]
2 | > 70 µM | 30 to 50% | – | CN1CCc2c(-c3ccccc3)cc3c(c2C1)NC(=O)/C3=N/NC(N)=S [Compound 104]
3 | > 70 µM | < 25% | – | CCOC(=O)CNCc1ccc(-c2ccccc2)c2c1CN(C(=O)OCC)CC2 [Compound 121]
4 | > 70 µM | < 25% | – | COC(=O)c1cc(-c2ccccc2)c2c(c1C(=O)OC)CN(C(=O)OC(C)(C)C)CC2 [Compound 179]
5 | > 70 µM | < 25% | – | CC(=O)Nc1c(C(=O)O)cc(-c2ccccc2)c2c1CN(C)CC2 [Compound 144]
6 | > 70 µM | < 25% | – | CN1CCc2c(-c3ccccc3)ccc(NCCC(=O)O)c2C1 [Compound 151]
7 | > 70 µM | < 25% | – | CN(C)/C=C1/C(=O)Nc2c1cc(-c1ccccc1)c1c2CN(C)CC1 [Compound 95]
8 | > 70 µM | < 25% | – | Nc1ccc(-c2ccccc2)c2ccncc12 [Compound 136]
9 | > 70 µM | 20 to 40% | – | CCOC(=O)N1CCc2c(-c3ccccc3)ccc(N)c2C1 [Compound 159]
10 | 40 to 60 µM | < 25% | – | CN1CCc2c(-c3ccccc3)cc3c(c2C1)NC(=O)/C3=N\NC(N)=O [Compound 103]
11 | > 70 µM | < 25% | – | O=[N+]([O-])c1ccc(-c2ccccc2)c2ccncc12 [Compound 135]
12 | > 70 µM | 20 to 40% | – | CCOC(=O)N1CCc2c(-c3ccccc3)ccc([N+](=O)[O-])c2C1 [Compound 161]
13 | > 70 µM | < 25% | – | CCOC(=O)N1CCc2c(-c3ccccc3)cc(C(=O)CCl)c(N)c2C1 [Compound 149]
14 | > 70 µM | < 25% | – | COC(=O)c1ccc(-c2ccccc2)c2c1CN(C(=O)OC(C)(C)C)CC2 [Compound 177]
15 | > 70 µM | – | 30 to 50% | CCOC(=O)N1CCc2c(Br)ccc(N)c2C1 [Compound 160]
16 | > 70 µM | < 25% | – | CN1CCc2c(-c3ccccc3)ccc(NCC(=O)O)c2C1 [Compound 127]
17 | > 70 µM | < 25% | – | CCOC(=O)N1CCc2c(-c3ccccc3)ccc(CN)c2C1 [Compound 120]
18 | > 70 µM | < 25% | – | CN1CCc2c(-c3ccccc3)cc3[nH]c(=O)[nH]c3c2C1 [Compound 99]
19 | > 70 µM | < 25% | – | COc1ccc(NC(=O)NCc2ccc(-c3ccccc3)c3c2CN(C)CC3)cc1 [Compound 117]
20 | > 70 µM | < 25% | – | CN1CCc2c(-c3ccccc3)cc(C#N)c(NC(=O)OC(C)(C)C)c2C1 [Compound 130]
21 | > 70 µM | < 25% | – | CN1CCc2c(-c3ccccc3)ccc(CNCC(=O)O)c2C1 [Compound 119]
22 | > 70 µM | < 25% | – | CC(C)(C)OC(=O)N1CCc2c(-c3ccccc3)ccc(C(=O)O)c2C1 [Compound 182]

The next lines start with the molecule.

Row | SMILES | IC50 (ASIC1a [1]) | inhibition at 50 µM (ASIC1a [2]) | inhibition at 100 µM (ASIC1a [2]; 100 μM, read-out: % inh. at 100 μM (Xo))
23 | COc1ccc(C=O)cc1-c1cc2c(c3c1CCN(C)C3)NC(=O)/C2=N/O [Compound 30] | > 70 µM | 40 to 60% | –
24 | CN1CCc2c(-c3ccccc3)cc3c(c2C1)C(=O)N(N)C3=O [Compound 80] | > 70 µM | < 25% | –
25 | CN1CCc2c(-c3ccccc3)cc3c(c2C1)NC(=O)/C3=C/c1ccc(C(=O)O)cc1 [Compound 83] | > 70 µM | < 25% | –
26 | COC(=O)c1cc(-c2ccccc2)c2c(c1C(=O)OC)CN(C)CC2 [Compound 180] | > 70 µM | < 25% | –
27 | CN1CCc2c(-c3ccccc3)cc3c(c2C1)NC(=O)/C3=C/c1ccccc1O [Compound 86] | > 70 µM | < 25% | –
28 | CN1CCc2c(-c3ccccc3)cc3c(c2C1)NC(=O)/C3=C/c1cccc(C(=O)O)c1 [Compound 84] | > 70 µM | < 25% | –
29 | CN1CCc2c(-c3ccccc3)cc3c(c2C1)NC(=O)C3 [Compound 81] | > 70 µM | 20 to 40% | –
30 | CN1CCc2c(-c3ccccc3)cc3c(c2C1)NC(=O)/C3=C/c1ccccc1C(=O)O [Compound 82] | > 70 µM | < 25% | –
31 | CN1CCc2c(-c3ccccc3)ccc(NC(=O)CCO)c2C1 [Compound 131] | > 70 µM | < 25% | –
32 | CN1CCc2c(-c3ccccc3)cc3c(c2C1)NC(=O)/C3=C/c1ccc(O)cc1 [Compound 88] | > 70 µM | < 25% | –
33 | CN1CCc2c(-c3ccccc3)cc3cc[nH]c3c2C1 [Compound 78] | > 70 µM | < 25% | –
34 | COC(=O)c1cc(-c2ccccc2)c2c(c1N)CN(C)CC2 [Compound 142] | > 70 µM | < 25% | –
35 | CN1CCc2c(-c3ccccc3)cc3c(c2C1)NC(=O)/C3=C/c1ccccc1 [Compound 87] | > 70 µM | < 25% | –
36 | CN1CCc2c(-c3ccccc3)cc3c(c2C1)NC(=O)C31OCCO1 [Compound 76] | 20 to 40 µM | < 25% | –
37 | COC(=O)CCC(=O)Nc1ccc(-c2ccccc2)c2c1CN(C)CC2 [Compound 132] | > 70 µM | < 25% | –
38 | CN1CCc2c(-c3ccccc3)cc3c(c2C1)NC(=O)/C3=C/C(=O)O [Compound 91] | > 70 µM | < 25% | –
39 | COC(=O)CC(=O)Nc1ccc(-c2ccccc2)c2c1CN(C)CC2 [Compound 137] | > 70 µM | < 25% | –
40 | C/C=C1/C(=O)Nc2c1cc(-c1ccccc1)c1c2CN(C)CC1 [Compound 89] | > 70 µM | < 25% | –
41 | CCOC(=O)CNc1ccc(-c2ccccc2)c2c1CN(C)CC2 [Compound 126] | 20 to 40 µM | < 25% | –
42 | CN1CCc2c(-c3ccccc3)cc3c(c2C1)NC(=O)C3O (centres unmarked) [Compound 79] | 20 to 40 µM | < 25% | –
43 | CN1CCc2c(-c3ccccc3)cc3c(c2C1)NC(=O)/C3=C/c1cccc(O)c1 [Compound 85] | > 70 µM | < 25% | –
44 | CN1CCc2c(-c3ccccc3)ccc(Br)c2C1 [Compound 172] | 50 to 70 µM | < 25% | –
45 | CN1CCc2c(-c3ccccc3)cc([N+](=O)[O-])c(N)c2C1 [Compound 155] | 40 to 70 µM | < 25% | –
46 | CN1CCc2c(-c3ccccc3)ccc(C#N)c2C1 [Compound 178] | > 70 µM | < 25% | –
47 | CC(=O)Nc1c(N)cc(-c2ccccc2)c2c1CN(C)CC2 [Compound 156] | > 70 µM | < 25% | –
48 | CN1CCc2c(-c3ccccc3)ccc(NC(=O)CCCO)c2C1 [Compound 133] | > 70 µM | < 25% | –
49 | CN1CCc2c(-c3ccccc3)cc3c(c2C1)NC(=O)/C3=C/c1ccccn1 [Compound 90] | > 70 µM | < 25% | –
50 | CO/N=C1/C(=O)Nc2c1cc(-c1cc(F)ccc1OC)c1c2CN(C)CC1 [Compound 24] | 20 to 30 µM | 40 to 60% | –
51 | CN1CCc2c(-c3ccccc3)ccc(CN)c2C1 [Compound 115] | > 70 µM | < 25% | –
52 | CN1CCc2c(-c3ccccc3)cc3c(c2C1)NC(=O)/C3=C1\CCCN1C [Compound 93] | > 70 µM | < 25% | –
